# Measurements: US9023761B2, “Compositions and methods for blocking ethylene response in plants using 3-cyclopropyl-1-enyl-propanoic acid salt” (Yissum Research Development Company of the Hebrew …, priority 2007, dated 2015)
# Like-named read-outs stand apart in the source and are kept apart here.
# Key:
# [1] = background statement; cited from earlier work
# Carnation flower petal = assay: Ethylene-induced senescence of isolated carnation petals; format: in vivo
# Procedure: (§1) Each kind of the model plants was exposed to different concentrations of CPAS in an aqueous solution for 6-18 h as a pre-treatment following exposure for 24 h to different concentration of ethylene. In the case of banana and avocado fruits, the peel was brushed with different concentrations of CPAS aqueous solution, in the presence of commercially available Tween 20 surfactant (0.025%) as pre-ethylene treatment, and the delay in days elapsed until color breakdown (from green to yellow in banana—Table 1, FIG. 4; and from green to black in avocado—Table 1, FIG. 6) over air control was recorded as a criterion of the efficiency of the ethylene antagonist. In the case of peach fruit, the surfactant BAS 70 (generously supplied by BASF, Germany) was used. The results were recorded after incubation of 2-4 days in controlled conditions (Table 1, FIG. 11). When using cut flower models (FIGS. 1-3) CPAS aqueous solutions±surfactants was applied by loading either the cut flower or the isolated petals for 18 h in CPAS aqueous solutions prior to ethylene treatment. The number of days of the delay of senescence of the tested plant materials over water control was recorded, by following the visual wilting of the flowers. Tomato seedlings were sprayed with CPAS aqueous solutions in the presence of commercial available ‘Kinetic’ organo-silicone surfactant blend, kept for calibration in a growth chamber for 8-10 hr before spraying with CPAS solution or before loading CPSA by excised seedlings via their lower stem cut surface (Table 1, FIG. 10) in order to antagonize ethylene-induced epinasty of leaf petioles (Table 1, FIGS. 8-9). In the case of citrus leaf explants, abscission was tested at the laminar abscission zone. CPAS in aqueous solution, was either pre-treated by direct loading of the treatment solutions into the proximal side of the explant for 17 h, or by dipping the whole explant in the tested solutions for 30 to 60 sec in the presence of commercially available Tween 20 TM surfactant (0.025%. In all cases, a significant delaying action of ethylene-induced responses, was recorded in all the plant systems examined (Table 1, FIG. 7). In further examples, the concentrations of the CPAS aqueous solutions were used in the range of the results obtained in the above experiment.
# The following test was designed to further establish the ability of water soluble CPAS in aqueous solution to delay the ethylene-induced senescence of isolated carnation petals. The experiment was carried out in a growth chamber to ensure optimal environmental conditions (light, temperature and relative humidity). Carnation petals were loaded with CPAS by dipping their cut surface for 18 hr in aqueous solution containing 81 μg mL^−1 of CPAS. Untreated petals that were held in water. […]
# Banana fruit = assay: Ethylene-induced ripening of green banana fruit (peel color, firmness); format: in vivo
# Procedure: as §1
# Banana fruits were treated by brushing with aqueous solution of water soluble CPAS (200 μg mL^−1). After 18 hr all treated and untreated fruits were exposed to ethylene (300 μL^−1) to hasten ripening. All fruits were ventilated and held in air at 22° C. and 92% RH for assessment of their ripening value. Photos were taken on day 12 (untreated—FIG. 4A, treated FIG. 4B).
# Additionally, banana fruits were treated by brushing with aqueous solution of CPAS ([…], and commercially available surfactant Tween 20 [0.025%]) and after 18 hr were exposed to ethylene (300 μL/L^−1) for 24 hr to hasten ripening. Fruits were kept at 24° C. and 92% RH. The fruits kept in air and treated by CPAS only served as comparative ones. Results were collected on day 7 (FIG. 5A).
# Citrus leaf explants = assay: Abscission of citrus leaf explants; format: in vivo; conditions: for Minimum apparent concentration / Protection time (days over control): Citrus leaf abscission, ethylene treatment +
# Procedure: as §1
# The application of water soluble CPAS to citrus leaf explants was studied under air, antagonizing endogenous ethylene-induced abscission, comparing two methods of applications; either by dipping their petiole cut surfaces for 6 h in CPAS aqueous solution, or by dipping the whole explants for 30 sec. in the same treatment solution plus or minus a surfactant. In this experiment Tween-20 (0.025%) was chosen as surfactant, but any un-ionic surfactant may be chosen. The experiment indicates, as expected, that surfactants improve the penetration into plant tissues. However, if application is preferred via a cut surface like with cut flowers, there is no need to add a surfactant to the treatment solution (FIG. 7).
# FIG. 7 represents a set of three figures, wherein explants are loaded with CPAS by dipping their petiole cut surfaces for 6 h in CPAS aqueous solution (A); dipped for 30 sec. in the same treatment solution (B); and treated as in B, but including Tween-20 [0.025%] (C).
# Petunia flower = assay: Petunia cut flower vase life after ethylene; format: in vivo
# Procedure: as §1, with “Tomato seedlings were sprayed with CPAS aqueous solutions in the presence of commercial available ‘Kinetic’ organo-silicone surfactant blend, kept for calibration in a growth chamber for 8-10 hr before spraying with CPAS solution or before loading CPSA by excised seedlings via their lower stem cut surface (Table 1, FIG. 10) in order to antagonize ethylene-induced epinasty of leaf petioles (Table 1, FIGS. 8-9). In the case of citrus leaf explants, abscission was tested at the laminar abscission zone.” left out, “experiment. […]” for “experiment.”
# Tomato leaf petiole = assay: Ethylene-induced epinasty of tomato leaf petioles; format: in vivo; parameters: key to Protection (effect grade): + = weak effect; ++ = medium effect; +++ = strong effect; conditions: ethylene treatment +
# Procedure: as §1
# For the spraying experiment (FIG. 8) tomato plants from green house (3 weeks old) were brought for calibration in a growth chamber (8-10 hr, at 22° C. and 80% RH, under continuous fluorescent light). […]
# In a second experiment the changes of the degree of the petiole from the branch, that expresses the epinastic response, was calculated (FIG. 9). […]
# [2] = Solubility and stability in water; format: physicochemical
# Avocado fruit = assay: Ethylene-induced ripening of 'Hass' avocado fruit (peel color, firmness, peduncle abscission); format: in vivo
# Procedure: as §1
# “Hass” avocado fruits with long peduncles were loaded with water soluble CPAS by dipping the peduncle cut surface for 30 hr in aqueous solution containing 100 μg/mL^−1 of CPAS. The untreated fruits with peduncles immersed in water. After the treatment with CPAS all fruits were exposed for 24 hr to the ethylene (250 μL L^−1). Afterwards the fruits were held at 24° C. and 92% RH for assessment their maturity parameters (peel color change and pulp firmness) and abscission of the peduncle. Photos were taken on day 5 after treatment (untreated—FIG. 6A, treated FIG. 6B).
# Peach fruit = Peach fruit firmness / shelf life after spraying; format: in vivo
# Procedure: as §1, with “When using cut flower models (FIGS. 1-3) CPAS aqueous solutions±surfactants was applied by loading either the cut flower or the isolated petals for 18 h in CPAS aqueous solutions prior to ethylene treatment.” left out, “Tomato seedlings were sprayed with CPAS aqueous solutions in the presence of commercial available ‘Kinetic’ organo-silicone surfactant blend, kept for calibration in a growth chamber for 8-10 hr before spraying with CPAS solution or before loading CPSA by excised seedlings via their lower stem cut surface (Table 1, FIG. 10) in order to antagonize ethylene-induced epinasty of leaf petioles (Table 1, FIGS. 8-9). In the case of citrus leaf explants, abscission was tested at the laminar abscission zone.” left out
# Peach fruits were harvested and brought to the lab and immediately sprayed with different concentrations of CPAS solution (K-phosphate buffer, 20 mM, and 0.1% organo-silicone surfactant, namely BAS 90370S by BASF Germany), and kept at 22° C. and 90% humidity for up to 4 days. […] Firmness was recorded by a penetrometer (chatillon, using a disc of 8 mm diameter), after removing a 15 mm square peel strip in order to allow measuring the firmness directly on the flesh of the fruit.
# Carnation flower = assay: Carnation cut flower vase life; format: in vivo
# Procedure: as §1
# Carnation cut flowers treated by dipping cut surface for 18 hr in aqueous solution containing 8 μg mL^−1 of CPAS. Untreated flowers were held in water. After treatment all flowers are kept in water at 22° C. and 80% RH under continuous fluorescent light for assessment of their vase life. Photo was taken on day 14.
# [3] = Carnation flower petal, senescence, loading, ethylene treatment +
# [4] = Banana fruit, peel color, brushing, ethylene treatment +
# [5] = Petunia flower, vase life, loading, ethylene treatment +
# [6] = Avocado fruit, peel color, loading, ethylene treatment +
# [7] = avocado, 100 μg/mL loading via peduncle 30 hr, ethylene 250 μL L^−1 24 hr
# [8] = Peach fruit, firmness, spraying, ethylene treatment −
# [9] = Carnation flower, vase life, loading, ethylene treatment −
compound,measurement,setting,value
"CC1=CC1 [1-MCP, 1-methylcyclopropene]",Solubility in water,[1],insolubility in water
"O=C([O-])CCC1=CC1.[Na+] [CPAS, cyclopropyl-1-enyl-propanoic acid sodium salt]",Ethylene antagonistic effect on petal senescence,"Carnation flower petal; 81 μg mL^−1 loading 18 hr, ethylene 5 μl L^−1 24 hr, measured after 6 days",highly significant
same,Minimum apparent concentration,Carnation flower petal; [3],81 µg/mL
same,Protection time (days over control),Carnation flower petal; [3],11 days
same,Toxic symptoms,"Carnation flower petal; carnation petals, 81 μg mL^−1 loading 18 hr",No toxic symptoms were observed
same,Minimum apparent concentration,Banana fruit; [4],200 µg/mL
same,Protection time (days over control),Banana fruit; [4],6 days
same,Delaying the decrease in fruit firmness,"Banana fruit; banana, 1000 μg mL^−1 brushing, ethylene 24 hr",ineffective
same,Delay of color break of the fruit,"Banana fruit; banana, brushing, ethylene, effective at the higher concentrations",significantly delayed
same,Delay of banana peel de-greening,Banana fruit; summary statement,≥ 12 days
same,Minimum apparent concentration,Citrus leaf explants; dipping,42 µg/mL
same,Protection time (days over control),Citrus leaf explants; dipping,2 days
same,Minimum apparent concentration,Citrus leaf explants; loading,32 µg/mL
same,Protection time (days over control),Citrus leaf explants; loading,7 days
same,Delay of abscission of citrus leaf explants,Citrus leaf explants; summary statement,≥ 7 days
same,Minimum apparent concentration,Petunia flower; [5],98 µg/mL
same,Protection time (days over control),Petunia flower; [5],17 days
same,Prolonging the vase-life of petunia cut flowers,Petunia flower; summary statement,≥ 14 days
same,Minimum apparent concentration,Tomato leaf petiole; loading,9 µg/mL
same,Protection (effect grade),Tomato leaf petiole; loading,*+++
same,Minimum apparent concentration,Tomato leaf petiole; spraying,160 µg/mL
same,Protection (effect grade),Tomato leaf petiole; spraying,*+++
same,Solubility in water,[2],soluble
same,Stability in water,[2],stable in water
same,Minimum apparent concentration,Avocado fruit; [6],100 µg/mL
same,Protection time (days over control),Avocado fruit; [6],5 days
same,Fruit softening,Avocado fruit; [7],a little delaying effect
same,Peduncle abscission,Avocado fruit; [7],significantly delayed
same,Skin color development,Avocado fruit; [7],significantly delayed
same,Delay of color change of 'Hass' avocado fruit,Avocado fruit; summary statement,≥ 5 days
same,Minimum apparent concentration,Peach fruit; [8],10 µg/mL
same,Protection time (days over control),Peach fruit; [8],4 days
same,Shelf life of climacteric fruit (peach),"Peach fruit; spraying with surfactant, 22° C., up to 4 days",expand the shelf life
same,Longevity of carnation cut flowers during vase life,"Carnation flower; 8 μg mL^−1 dipping cut surface 18 hr, day 14, vs untreated",longevity increase
same,Minimum apparent concentration,Carnation flower; [9],0.8 µg/mL
same,Protection time (days over control),Carnation flower; [9],10 days
same,Prolonging the vase-life of carnation cut flowers,Carnation flower; summary statement,≥ 14 days
